Molecular target: T1, HLA class I molecule A*0201 (Homo sapiens, UniProt P04439, D140Y/D185E/D98H/E176V/E277Q/G131W/G231S/I119V/I121R/I166T/I218V/L300P/L318F/N151K/N90K/P208A/P217A/Q86G/Q94H/R138H/R169H/T345S)
T1 construct: purchased ProImmune Ltd., Oxford, UK
Test: not given
Type: binding
Details: REVEAL assay, assembly of peptide-HLA complex by ELISA with conformation-dependent anti-HLA antibody, relative to positive control peptide for that allele, comparable within an allele only

Sequence | Score (experimentally measured binding affinity, % binding compared to control peptide) [%]
AAGAALIPV [HTLV-1 nonamer peptide] | 34.35
ALLGEIQWV [HTLV-1 nonamer peptide from Pol] | 84.64
ELVDGLLSL [HTLV-1 nonamer peptide] | 25.11
FMQTIRLAV [HTLV-1 nonamer peptide from Gag] | 95.61
GIDGYTRQL [HTLV-1 nonamer peptide] | 28.99
ILIQTQAQI [HTLV-1 nonamer peptide] | 79.21
ILPEDCLPT [HTLV-1 nonamer peptide] | 15.96
KLLQEKEDL [HTLV-1 nonamer peptide] | 0
LLITPVLQL [HTLV-1 nonamer peptide] | 114.87
LLLDLPADI [HTLV-1 nonamer peptide] | 77.78
LLQEKEDLM [HTLV-1 nonamer peptide] | 46.36
LLQYLCSSL [HTLV-1 nonamer peptide] | 45.68
LLYKISLTT [HTLV-1 nonamer peptide] | 78.05
LMGEVNYWQ [HTLV-1 nonamer peptide] | 12.98
LQYLCSSLV [HTLV-1 nonamer peptide] | 47.17
LTPPITHTT [HTLV-1 nonamer peptide] | 31.05
LVEELVDGL [HTLV-1 nonamer peptide] | 2.64
QLDSLISEA [HTLV-1 nonamer peptide] | 52.07
QLEGEVESL [HTLV-1 nonamer peptide] | 18.58
QLGAFLTNV [HTLV-1 nonamer peptide] | 80.99
QLLASAVLL [HTLV-1 nonamer peptide] | 100.23
QLWLAAFAA [HTLV-1 nonamer peptide] | 64.37
TLGQHLPTL [HTLV-1 nonamer peptide] | 54.56
TLSFPDPGL [HTLV-1 nonamer peptide] | 0
TLTAWQNGL [HTLV-1 nonamer peptide] | 54.64
TLYRLHVWV [HTLV-1 nonamer peptide] | 73.87
YILWDKQIL [HTLV-1 nonamer peptide] | 39
YISQDFLNM [HTLV-1 nonamer peptide] | 10.48
YLCSSLVAS [HTLV-1 nonamer peptide] | 42.17
YLYQLSPPI [HTLV-1 nonamer peptide from Tax] | 132.52

Molecular target: T2, HLA class I molecule A*2402 (Homo sapiens, UniProt P04439, D101N/D140Y/D185E/E176V/E190D/F33S/G103R/G107R/I119L/I121M/I306V/K335N/L105A/L180Q/L300P/N151K/N90K/Q86E/Q94H/R106L/R138H/R89G/T104I/T345S/V100E/W191G/Y123F)
T2 construct: purchased ProImmune Ltd., Oxford, UK
Test: not given
Type: binding
Details: REVEAL assay, assembly of peptide-HLA complex by ELISA with conformation-dependent anti-HLA antibody, relative to positive control peptide for that allele, comparable within an allele only

Sequence | Score (experimentally measured binding affinity, % binding compared to control peptide) [%]
AWQNGLLPF [HTLV-1 nonamer peptide] | 92.6
DLMGEVNYW [HTLV-1 nonamer peptide] | 62.28
EKAVLDGLL [HTLV-1 nonamer peptide] | 0
EYLKRKEEE [HTLV-1 nonamer peptide] | 0
EYQQLWLAA [HTLV-1 nonamer peptide] | 2.7
GYPGRVNEI [HTLV-1 nonamer peptide] | 82.68
GYTRQLEGE [HTLV-1 nonamer peptide] | 35.37
ICPINYSLL [HTLV-1 nonamer peptide] | 69.19
IFSRSASPI [HTLV-1 nonamer peptide] | 62.41
IWQGDITHF [HTLV-1 nonamer peptide] | 64.83
KQIAEYLKR [HTLV-1 nonamer peptide] | 3.56
KYKNTLYRL [HTLV-1 nonamer peptide] | 124.9
KYLYHYLRT [HTLV-1 nonamer peptide] | 2.63

Molecular target: HLA class I molecule B*3501 (Homo sapiens, UniProt P01889, A329T/A93T/A95T/C349S/D201E/D98Y/E176V/E187L/E204Q/E69T/I218V/K202T/L119I/Q94N/R155S/R180L/S121R/S35A/S48A/T118I/V127L/V306I/V36M/Y140S/Y91F)
Test: REVEAL HLA-peptide binding assay, B*3501
Details: assembly of peptide-HLA complex by ELISA with conformation-dependent anti-HLA antibody, relative to positive control peptide for that allele, comparable within an allele only
Protocol: The REVEAL HLA-peptide binding assay (ProImmune Ltd., Oxford, UK) was used to quantify peptide-HLA binding. For each allele-peptide combination that was tested, assembly of peptide-HLA complexes was quantified by ELISA with a conformation-dependent anti-HLA antibody. Samples of assembling peptide-HLA complexes were taken at a defined time point and snap-frozen in liquid nitrogen prior to analysis. The assembly for each peptide-HLA complex was then compared against a positive control peptide for that allele as the percentage of assembled peptide relative to that control. We selected four HLA class I alleles and 50 HTLV-1 peptides for each allele. The allele choice was based on allele frequency in the Kagoshima database and included 2 A alleles and 2 B alleles as well as alleles for which we knew that the epitope prediction tended to be poor. The 50 HTLV-1 nonamer peptides for each allele were selected to represent a range of predicted binding affinities, from weak to strong binding peptides. They originated from 4 HTLV-1 reference strain proteins: Tax, HBZ, Gag and Polymerase.
Note the binding score is with respect to a reference good binding peptide for each allele and therefore scores can be compared within an allele but not between alleles.

Sequence | Score (experimentally measured binding affinity, % binding compared to control peptide) [%]
CPINYSLLA [HTLV-1 nonamer peptide] | 102.68
CPLCQDPTH [HTLV-1 nonamer peptide] | 36.7
DPILRSLAY [HTLV-1 nonamer peptide] | 72.18
EEEKQIAEY [HTLV-1 nonamer peptide] | 8.99
ELVDGLLSL [HTLV-1 nonamer peptide] | 0
EPEEDALLL [HTLV-1 nonamer peptide] | 11.92
EPEPEEDAL [HTLV-1 nonamer peptide] | 28.71
EPGPSSYDF [HTLV-1 nonamer peptide] | 102.27
FPQCTILQY [HTLV-1 nonamer peptide] | 103.38
FPTQRTSKT [HTLV-1 nonamer peptide] | 81.35
LASLLPKGY [HTLV-1 nonamer peptide] | 98.24
LLQEKEDLM [HTLV-1 nonamer peptide] | 0
LPEDCLPTT [HTLV-1 nonamer peptide] | 52.2
LPTTLFQPA [HTLV-1 nonamer peptide from Tax] | 119.5
LTPPITHTT [HTLV-1 nonamer peptide] | 0
LVEELVDGL [HTLV-1 nonamer peptide] | 0
MQELGIDGY [HTLV-1 nonamer peptide] | 48.1
QAAPGSPQF [HTLV-1 nonamer peptide] | 86.5
WALPELQAL [HTLV-1 nonamer peptide] | 73.45
WPLLPHVIF [HTLV-1 nonamer peptide] | 49.66
WTFTDGTPM [HTLV-1 nonamer peptide] | 137.29
WTINHLNVL [HTLV-1 nonamer peptide] | 1.04
YILWDKQIL [HTLV-1 nonamer peptide] | 0
YISQDFLNM [HTLV-1 nonamer peptide] | 0

— paper PMC2944806, “HLA Class I Binding of HBZ Determines Outcome in HTLV-1 Infection” (PLoS Pathogens, 2010)
